Measurements reported in ChEMBL document CHEMBL1150217, “Molecular structure and activity toward DNA of baicalein, a flavone constituent of the Asian herbal medicine "Sho-saiko-to"” (J Nat Prod, 2001).
Activity calls are given as the source filed them. The rule behind the calls is not given here.

Assays:
[1] = system: Human immunodeficiency virus; assay: Inhibition of HIV integrase
Calf thymus DNA = assay: Binding affinity to calf thymus DNA assessed as intercalation by agarose gel electrophoresis; format: nucleic-acid assay; details: Bos taurus

Structure (SMILES): O=c1cc(-c2ccccc2)oc2cc(O)c(O)c(O)c12
- Activity [1]: Active
- Activity (Calf thymus DNA): Active
